Where “and” joins values, the source holds several entries; their conditions need not be identical. Identical values can stand only once.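 Briefly, cells in 96-well plates were exposed to five compound concentrations for 48 h, and endpoints were estimated by linear interpolation. Abbreviation: GI50, concentration required for 50% inhibition of growth.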 Calls of active or inactive are those of the source. No stated cut-off is given here; in the data, active = GI50 up to about 1.1 µM and inactive = higher.
Experiments:
Assay in all cases: NCI anticancer screen, dose series, 48 h
[1] = system: DU-145
[2] = system: HOP-92
[3] = system: HT-29
[4] = system: IGROV-1
[5] = system: KM12
[6] = system: M14
[7] = system: Malme-3M
[8] = system: OVCAR-3
[9] = system: OVCAR-4
[10] = system: OVCAR-5
[11] = system: PC-3
[12] = system: SK-MEL-5
[13] = system: SW-620
[14] = system: T47D
[15] = system: CCRF-CEM
[16] = system: NCI-H460
[17] = system: OVCAR-8
[18] = system: RPMI-8226
[19] = system: SNB-19
[20] = system: U-251

SMILES | GI50 [1] | GI50 [2] | GI50 [3] | GI50 [4] | GI50 [5] | GI50 [6] | GI50 [7] | GI50 [8] | GI50 [9] | GI50 [10] | GI50 [11] | GI50 [12] | GI50 [13] | GI50 [14] | GI50 [15] | GI50 [16] | GI50 [17] | GI50 [18] | GI50 [19] | GI50 [20]
O=C(CCc1ccc(O)cc1)c1c(O)cc(O)cc1OC1OC(CO)C(O)C(O)C1O (stereo not given) | > 100 µM (inactive) | > 100 µM (inactive) | > 100 µM (inactive) | > 100 µM (inactive) | > 100 µM (inactive) | > 100 µM (inactive) | > 100 µM (inactive) | > 100 µM (inactive) | > 100 µM (inactive) | > 100 µM (inactive) | > 100 µM (inactive) | > 100 µM (inactive) | > 100 µM (inactive) | > 100 µM (inactive) |  |  |  |  |  | 
COC(CNC(=O)CNC(=O)c1ccc(C(F)(F)F)cc1)OC | > 100 µM (inactive) | > 100 µM (inactive) | > 100 µM (inactive) | > 100 µM (inactive) | > 100 µM (inactive) | > 100 µM (inactive) | > 100 µM (inactive) |  |  | > 100 µM (inactive) | > 100 µM (inactive) | > 100 µM (inactive) | > 100 µM (inactive) | > 100 µM (inactive) | > 100 µM (inactive) | > 100 µM (inactive) | > 100 µM (inactive) | > 100 µM (inactive) | 47.9 µM (inactive) | > 100 µM (inactive)
COC(=O)[C@@H]1COC(=O)N1 | > 100 µM (inactive) | > 100 µM (inactive) | > 100 µM (inactive) | > 100 µM (inactive) | > 100 µM (inactive) | > 100 µM (inactive) | > 100 µM (inactive) | > 100 µM (inactive) | > 100 µM (inactive) | > 100 µM (inactive) | > 100 µM (inactive) | > 100 µM (inactive) | > 100 µM (inactive) | > 100 µM (inactive) | > 100 µM (inactive) | > 100 µM (inactive) | > 100 µM (inactive) |  | > 100 µM (inactive) | > 100 µM (inactive)
COc1cc(/C=C2\N=C(c3ccccc3)N(c3nc4c(OC)ccc(OC)c4s3)C2=O)ccc1O | 28.8 µM (inactive) | 35.6 µM (inactive) | > 100 µM (inactive) | 46.8 µM (inactive) | 51.2 µM (inactive) | 88.5 µM (inactive) | 85.7 µM (inactive) | 37.1 µM (inactive) |  | > 100 µM (inactive) | 32.4 µM (inactive) | 54.8 µM (inactive) | 42.2 µM (inactive) | 5.47 µM (inactive) | 28.1 µM (inactive) | 51.4 µM (inactive) | 30.8 µM (inactive) | 23.1 µM (inactive) | > 100 µM (inactive) | 29.9 µM (inactive)
C[C@]12CCC(=O)C=C1CC[C@@H]1[C@@H]2CC[C@]2(C)C(=O)/C(=C/c3ccc([N+](=O)[O-])cc3)C[C@@H]12 | 0.824 µM (active) | > 100 µM (inactive) | > 100 µM (inactive) | > 100 µM (inactive) | 6.93 µM (inactive) | 29.4 µM (inactive) | 70.8 µM (inactive) | 8.91 µM (inactive) |  | > 100 µM (inactive) | 7.87 µM (inactive) | 3.47 µM (inactive) | > 100 µM (inactive) | 3.48 µM (inactive) | 8.97 µM (inactive) | 9.57 µM (inactive) | 45.8 µM (inactive) | 5.52 µM (inactive) | > 100 µM (inactive) | 
Cc1ccc(S(=O)(=O)SC/C=C\CSS(=O)(=O)c2ccc(C)cc2)cc1 | 16.4 µM (inactive) | 14.4 µM (inactive) and 16.2 µM (inactive) |  | 39.2 µM (inactive) and 28.1 µM (inactive) | 14.7 µM (inactive) and 17.2 µM (inactive) | 13.8 µM (inactive) and 17.4 µM (inactive) | 34.7 µM (inactive) and 20.2 µM (inactive) | 24.4 µM (inactive) and 16 µM (inactive) |  |  | 19.9 µM (inactive) | 27.6 µM (inactive) and 29.3 µM (inactive) |  | 39.3 µM (inactive) | 0.262 µM (active) | 30.3 µM (inactive) and 35.6 µM (inactive) | 18.9 µM (inactive) and 13.3 µM (inactive) |  | 34.2 µM (inactive) and 29.6 µM (inactive) | 15.8 µM (inactive) and 15.9 µM (inactive)
O=C(NNC(=S)Nc1ccccc1)c1csc(NC(=S)NC2CCCCC2)n1 | > 100 µM (inactive) | 94 µM (inactive) | 15.6 µM (inactive) | 29.5 µM (inactive) | > 100 µM (inactive) | 69.8 µM (inactive) | > 100 µM (inactive) | 87.5 µM (inactive) |  | > 100 µM (inactive) | 62.4 µM (inactive) | 17.4 µM (inactive) | 52.7 µM (inactive) | 36.9 µM (inactive) | 54.8 µM (inactive) |  | 56.5 µM (inactive) | 28.8 µM (inactive) |  | 48.4 µM (inactive)
COc1cc2c(cc1OC)C1CCc3ccccc3CN1CC2 (stereo not given) | > 100 µM (inactive) | > 100 µM (inactive) | > 100 µM (inactive) | > 100 µM (inactive) | > 100 µM (inactive) | > 100 µM (inactive) | > 100 µM (inactive) | > 100 µM (inactive) | > 100 µM (inactive) | > 100 µM (inactive) | > 100 µM (inactive) | > 100 µM (inactive) | > 100 µM (inactive) | > 100 µM (inactive) | > 100 µM (inactive) | > 100 µM (inactive) | > 100 µM (inactive) |  | > 100 µM (inactive) | > 100 µM (inactive)
O[C@H]1[C@H](O)[C@@H](O)[C@@]2(O)CC[C@@H]1N2 | > 100 µM (inactive) | > 100 µM (inactive) | > 100 µM (inactive) | > 100 µM (inactive) | > 100 µM (inactive) | > 100 µM (inactive) | > 100 µM (inactive) | > 100 µM (inactive) | > 100 µM (inactive) | > 100 µM (inactive) | > 100 µM (inactive) | > 100 µM (inactive) | > 100 µM (inactive) | > 100 µM (inactive) | > 100 µM (inactive) | > 100 µM (inactive) | > 100 µM (inactive) |  | > 100 µM (inactive) | > 100 µM (inactive)
Nc1nc(Cl)cc(NCC2(CO)CC=CC2)n1 | > 100 µM (inactive) | > 100 µM (inactive) | > 100 µM (inactive) | > 100 µM (inactive) | > 100 µM (inactive) |  | > 100 µM (inactive) | 80.2 µM (inactive) | 80 µM (inactive) | > 100 µM (inactive) | > 100 µM (inactive) | 46.3 µM (inactive) | > 100 µM (inactive) | 47.1 µM (inactive) | > 100 µM (inactive) | > 100 µM (inactive) | 79.8 µM (inactive) |  | > 100 µM (inactive) | > 100 µM (inactive)
COc1cc(S(=O)(=O)Nc2nc(-c3ccc(N4C(=O)/C(=C\c5cccs5)N=C4c4ccccc4)cc3)cs2)ccc1Cl | > 100 µM (inactive) | 28.1 µM (inactive) | > 100 µM (inactive) | 42.2 µM (inactive) | 94 µM (inactive) | > 100 µM (inactive) | 23.6 µM (inactive) | > 100 µM (inactive) | 57.3 µM (inactive) | > 100 µM (inactive) | 66.8 µM (inactive) | 43.2 µM (inactive) | > 100 µM (inactive) | 45.8 µM (inactive) | 41 µM (inactive) | > 100 µM (inactive) | 46 µM (inactive) |  | 66.2 µM (inactive) | 45.4 µM (inactive)
